The source of these data is US20240207265A1, “TREATMENT OF CNS DISEASES WITH sGC STIMULATORS” (Tisento Therapeutics Inc., priority 2021, published 2024).

In data set [1] the test system is normotensive rats. Nature of the data set: Blood pressure effects in normotensive rats after acute oral dose. In kind it is in vivo, rat. Conditions: for Peak ΔVMAP (mm Hg): sodium salt in Milli-Q water, vehicle-adjusted MAP; for Time at Peak: time of peak ΔVMAP. An excerpt:
Male, normotensive Sprague Dawley rats were purchased from Charles River Laboratories. These rats have indwelling femoral artery catheters installed. Animals were harnessed to a tether system and attached to pressure transducers to monitor cardiovascular (CV) parameters, specifically mean arterial pressure (MAP) and heart rate (HR). Animals were acclimated to the system overnight and baseline CV parameters collected. […] A blood sample was collected from each animal through the catheter line at pre-dose and 2 hours post-dose for compound concentration quantification. Hemodynamic measures were recorded for ten hours post-dose. Fifty-four male rats were used for these studies and they were ordered to be received at a body weight range of 250-275 grams. They were single housed under controlled conditions of temperature (21±1° C.), relative humidity (36±1%) and placed in a 12-hr light-dark cycle (lights on at 6:00 AM and off at 6:00 PM) room at SmartLabs vivarium (21 Erie Street, Cambridge, MA) under protocol MIL-110. Animals were allowed ad libitum access to chow (LabDiet Prolab Isopro RMH 3000, St. Louis, MO) and water. Two sets of studies were carried out. […] […] Formulations prepared were thawed less than 4 hours before dosing and stored at room temperature or were made less than 2 hours before dosing and stored at room temperature.
This study utilized ADInstruments LabChart (v8) to collect hemodynamic data from conscious, freely moving rats tethered to a blood pressure transducer (Harvard Apparatus cat #APT300). Following an overnight acclimation to the tether and pressure transducer, animals were dosed following a 1-hr baseline recording period. Animals were administered a single oral (P.O.) dose of the sodium salt form of Compound I-14 or vehicle at a dose volume of 10 mL/kg. Data collection was continued for 10 hours post-dose.
ADInstruments LabChart (v8) was used to monitor and export hemodynamic data. Blood pressure and heart rate were continuously monitored, and data were collected at 1000 data points per second then averaged into 10-minute bins for analysis. Change from baseline MAP (ΔBMAP) and HR (ΔBHR) were calculated using the pre-dose baseline averaged over the 1-hr period prior to dosing using Microsoft Excel for Microsoft 365. This 10-minute bin dataset was used to determine peak ΔVMAP, time peak ΔVMAP, peak ΔVHR and time of peak ΔVHR. The dataset was further consolidated into 1-hr bins for the MAP and HR figures and the analysis of ΔBMAP, ΔBMAP, and ΔBHR. The definitions of these terms/abbreviations are summarized below:
Statistical analyses were performed in Graphpad Prism (v8). Significance, as compared to vehicle-treated rats, for ΔBMAP and ΔBHR data was determined by 2-way repeated measures ANOVA followed by a Dunnett's multiple comparisons test, if there was a missing data point, a mixed-effect analysis was utilized. Vehicle-adjusted MAP (ΔVMAP) was calculated by subtracting ΔBMAP of the vehicle group from the ΔBMAP of each dose group at each timepoint. Vehicle-adjusted HR (ΔVHR) was calculated in a similar manner to ΔVMAP.
Analogous studies to the ones described above were carried out with Compound I-20. […] A blood sample was collected from each animal through the catheter line at pre-dose and 2 hours post-dose for compound concentration quantification. Hemodynamic measures were recorded for ten hours post-dose.

Data set [2] is described as follows: Non-human primate CSF pharmacokinetics (Study A). Type of data set: in vivo, Cynomolgus monkeys. Particulars: female, cynomolgus monkey, NHP CSF (cisterna magna)/unbound plasma, sodium salt. As to the method:
PK in NHP was determined following oral dosing (PO). A group of 4 female Cynomolgus monkeys were used for studying each compound. Compound I-20 sodium salt was formulated as a 0.06 mg/mL solution in MilliQ water. Compound I-14 sodium salt was formulated as 0.2 mg/mL solution in MilliQ water. Formulations were shipped frozen on dry ice and then thawed and mixed thoroughly prior to dosing. PO doses of 1 mg/kg for Compound I-14 and 0.3 mg/kg for Compound I-20 were administered by oral gavage.
Plasma and CSF samples were collected as follows: samples of CSF were collected at 3 and 24 hours post PO dosing. CSF samples (0.125 mL) were collected at the cisterna magna via direct needle puncture by direct dilution. Blood samples (0.8 mL) were collected from a peripheral vein at 0, 0.25, 0.5, 1, 2, 3, 6, 8, […], 24, 32 and 48 or 72 hours. These samples were kept on ice until processed for plasma. Blood samples were protein precipitated using acetonitrile. Plasma was directly transferred to individual tubes (0.125 mL) and K2EDTA was used as the anticoagulant. Plug caps were placed on the tubes and the tubes frozen at approximately −70° C. and stored until analysis. Plasma and CSF was collected and analyzed for the presence of compound.
Plasma and CSF samples were analyzed using liquid chromatography (LC) with tandem mass spectrometric detection (MS/MS) using positive electrospray ionization. The standard curve range was from 0.1 to 1000 ng/mL.
The geometrical means for the values obtained for the 4 animals in each compound's study was obtained for concentrations in CSF and in Plasma, respectively.
Kp,uu is defined as the concentration ratio of unbound drug in CSF to unbound drug in plasma. Unbound drug in plasma (or free plasma concentration) is calculated by multiplying the total plasma concentration by the unbound fraction as determined by plasma protein binding. The CSF concentration is then divided by the free plasma concentration to determine the Kp,uu. (See e.g., Di et al., J. Med. Chem., 56, 2-12 (2013))

Turning to `Oc1nc(-c2cn3ccnc3c(Cc3cccc(F)c3F)n2)ncc1F` [Compound I-4, 2-(8-(2,3-Difluorobenzyl)imidazo[1,2-a]pyrazin-6-yl)-5-fluoropyrimidin-4-ol], in data set [1] (formulated in PEG400, 10 mg/kg), the “maximal reduction of MAP from baseline (ΔBMAP)” value stood at 20 mm Hg and the “time after dosing of maximal/peak ΔBMAP” value was 50 min.
`Oc1nc(-c2cn3ccnc3c(Cc3cc(F)ccc3F)n2)ncc1F` [Compound I-20, 5-fluoro-2-(8-(2,5-difluorobenzyl)imidazo[1,2-a]pyrazin-6-yl)pyrimidin-4-ol]: in data set [1] (1 mg/kg single oral dose), the “Peak ΔVMAP (mm Hg)” value is reported as −14.3 mm Hg and the “Time at Peak” value came to 20 min. In addition, in data set [1] (3 mg/kg single oral dose), the “Peak ΔVMAP (mm Hg)” value is −19.2 mm Hg and the “Time at Peak” value is 20 min. In addition, in data set [1] (10 mg/kg single oral dose), the “Peak ΔVMAP (mm Hg)” value is −20.2 mm Hg and the “Time at Peak” value is listed as 30 min. Also, in data set [1] (30 mg/kg single oral dose), the “Peak ΔVMAP (mm Hg)” value was −38.1 mm Hg and the “Time at Peak” value is 30 min. In data set [1] (formulated in PEG400, 10 mg/kg), the “peak ΔBMAP” value is on record as −26 mm Hg and the “time after dosing of maximal/peak ΔBMAP” value came out at 42 min. Besides, in data set [2] (PO 0.3 mg/kg), the Kp uu at 3 h was not above 1 and the Kp uu at 24 h fell in the range of 1 to 2.
On to `Cc1cc(F)c(Cc2nc(-c3ncc(F)c(O)n3)cn3ccnc23)cc1F` [Compound I-14, 5-fluoro-2-(8-(2,5-difluoro-4-methylbenzyl)imidazo[1,2-a]pyrazin-6-yl)pyrimidin-4-ol], for which the “Peak ΔVMAP (mm Hg)” value is on record as −6.2 mm Hg in data set [1] (1 mg/kg single oral dose), −10.1 mm Hg in data set [1] (3 mg/kg single oral dose), −22.3 mm Hg in data set [1] (10 mg/kg single oral dose) and −24.4 mm Hg in data set [1] (30 mg/kg single oral dose). For the same compound, the “Time at Peak” value is 90 min in data set [1] (1 mg/kg single oral dose), 70 min in data set [1] (3 mg/kg single oral dose), 30 min in data set [1] (10 mg/kg single oral dose) and 30 min in data set [1] (30 mg/kg single oral dose). Further, the “effect on MAP from baseline and as adjusted from vehicle” value in data set [1] (single oral dose 3, 10, and 30 mg/kg) was “lowered MAP from baseline and as adjusted from vehicle”. Moreover, the “no effect dose on ΔBMAP” value in data set [1] (single oral dose, main effect analysis, simple effects analysis and AOC) was found to be 1 mg/kg. Further, the Kp uu at 3 h in data set [2] (PO 1 mg/kg) was 2 to 3. In addition, the Kp uu at 24 h in data set [2] (PO 1 mg/kg) is more than 3.
